Where a name gives a salt, the structure may show the parent alone.
Assays:
Type in all cases: cell-based
[1] = tested on: Sporothrix schenkii B62482; assay: Antifungal activity in vitro (resazurin susceptibility screen), Inf. A; settings: 27 °C, 4 days, resa time 24 hours, highest in-test concentration 64 μM; for Inf. A pIC50: Sporothrix schenkii B62482; for IC50: Sporothrix, B62482, Sporothrix schenkii B62482, read-out: Inf. A pIC50 (converted)
Description: (§1) The standard susceptibility screen was performed in 96-well plates (U-bottom, Greiner Bio-One). […] These serial dilutions (10 n1) were then spotted onto test-plates that could be stored in the dark at 4° C. for a maximum period of 2 weeks. […] The different fungal species/isolates (Table 3a) were cryopreserved and 1/1000 diluted in medium just prior to use. A standard inoculum of 200 μl containing 10^3 colony-forming unit (cfu) was then added to each well. A positive control (100% growth=fungal culture without antifungal) and a negative control (0% growth ═RPMI-MOPS medium) were included on each plate. […] [table]

Microsporum canis B68128 = assay: Antifungal activity in vitro (resazurin susceptibility screen), Inf. B; settings: 27 °C, 9 days, resa time 24 hours; for Inf. B pIC50: Microsporum canis B68128; for IC50: Microsporum canis, B68128, Microsporum canis B68128, read-out: Inf. B pIC50 (converted)
Description: (§2) The standard susceptibility screen was performed in 96-well plates (U-bottom, Greiner Bio-One). […] These serial dilutions (10 n1) were then spotted onto test-plates that could be stored in the dark at 4° C. for a maximum period of 2 weeks. […] A standard inoculum of 200 μl containing 10^3 colony-forming unit (cfu) was then added to each well. A positive control (100% growth=fungal culture without antifungal) and a negative control (0% growth ═RPMI-MOPS medium) were included on each plate.

[2] = tested on: Trichophyton rubrum B68183; assay: Antifungal activity in vitro (resazurin susceptibility screen), Inf. C; settings: Trichophyton rubrum B68183, 27 °C, 7 days, resa time 24 hours; for IC50: read-out: Inf. C pIC50 (converted)
Description: as §1

[3] = tested on: Candida parapsilosis B66126; assay: Antifungal activity in vitro (resazurin susceptibility screen), Inf. D; settings: Candida parapsilosis B66126, 37 °C, 24 hours, resa time 4 hours; for IC50: Lodderomyces parapsilosis, read-out: Inf. D pIC50 (converted)
Description: as §2

[4] = tested on: Aspergillus fumigatus B42928; assay: Antifungal activity in vitro (resazurin susceptibility screen), Inf. E; settings: Aspergillus fumigatus B42928, 27 °C, 48 hours, resa time 17 hours; for IC50: read-out: Inf. E pIC50 (converted)
Description: as §1

[5] = tested on: Cryptococcus neoformans B66663; assay: Antifungal activity in vitro (resazurin susceptibility screen), Inf. F; settings: 37 °C, 24 hours, resa time 4 hours; for Inf. F pIC50: Cryptococcus neoformans B66663; for IC50: Cryptococcus neoformans, B66663, Cryptococcus neoformans B66663, read-out: Inf. F pIC50 (converted)
Description: as §1

[6] = tested on: Trichophyton mentagrophytes B70554; assay: Antifungal activity in vitro (resazurin susceptibility screen), Inf. G; settings: 27 °C, 7 days, resa time 24 hours; for Inf. G pIC50: Trichophyton mentagrophytes B70554; for IC50: Trichophyton mentagrophytes, B70554, Trichophyton mentagrophytes B70554, read-out: Inf. G pIC50 (converted)
Description: as §2

Row | Structure (SMILES) | Inf. A pIC50 [1] | Inf. B pIC50 (Microsporum canis B68128) | Inf. C pIC50 [2] | Inf. D pIC50 [3] | Inf. E pIC50 [4] | Inf. F pIC50 [5] | Inf. G pIC50 [6] | IC50 [1] | IC50 (Microsporum canis B68128) | IC50 [2] | IC50 [3] | IC50 [4] | IC50 [5] | IC50 [6]
1 | CC(O)c1ccc(C2NCc3c(ccc(Cl)c3Cl)-n3cccc32)cc1.Cl (stereo not drawn) [Compound 2, 4-(7,8-dichloro-5,6-dihydro-4H-pyrrolo[1,2-a][1,4]benzodiazepin-4-yl)-alpha-methyl-benzenemethanol .HCl] | <4.2 | 4.7 | <4.2 | <4.2 | <4.2 | <4.2 | <4.2 |  |  |  |  |  |  | 
2 | CC(O)c1ccc(C2NCc3cc(Cl)cc(Cl)c3-n3cccc32)cc1.Cl (stereo not drawn) [Compound 3, 4-(8,10-dichloro-5,6-dihydro-4H-pyrrolo[1,2-a][1,4]benzodiazepin-4-yl)-alpha-methyl-benzenemethanol .HCl] | <4.2 | 5.0 | 6 | <4.2 | <4.2 | 4.7 | 4.4 |  |  |  |  |  |  | 
3 | CC(=O)c1cccc(C2NCc3c(Cl)cccc3-n3cccc32)c1 (stereo not shown) [Compound 4, 1-[3-(7-chloro-5,6-dihydro-4H-pyrrolo[1,2-a][1,4]benzodiazepin-4-yl)phenyl]-ethanone] |  |  |  |  |  |  |  | > 63.1 µM | 10 µM | 5.01 µM | > 63.1 µM | > 63.1 µM | > 63.1 µM | 
4 | Br.CC(=O)c1ccc(C2NCc3c(Cl)cccc3-n3cccc32)cc1 (stereo not shown) [Compound 6, 1-[4-(7-chloro-5,6-dihydro-4H-pyrrolo[1,2-a][1,4]benzodiazepin-4-yl)phenyl]-ethanone .HBr] | 4.7 | 6.2 | 6.4 | <4.2 | 4.5 | <4.2 |  |  |  |  |  |  |  | 
5 | CC(=O)c1cc(C2NCc3c(Cl)cccc3-n3cccc32)ccc1F.Cl (stereo not shown) [Compound 7, 1-[5-(7-chloro-5,6-dihydro-4H-pyrrolo[1,2-a][1,4]benzodiazepin-4-yl)-2-fluorophenyl]-ethanone .HCl] | <4.2 | 5.1 | 6.0 | <4.2 | <4.2 | <4.2 | 5.2 |  |  |  |  |  |  | 
6 | CC(=O)c1ccc(C2NCc3c(ccc(Cl)c3Cl)-n3cccc32)cc1.Cl (stereo not shown) [Compound 9, 1-[4-(7,8-dichloro-5,6-dihydro-4H-pyrrolo[1,2-a][1,4]benzodiazepin-4-yl)phenyl]-ethanone .HCl] | 5.0 | 5.6 | 5.7 | <4.2 | <4.2 | 4.5 | 4.5 |  |  |  |  |  |  | 
7 | CC(=O)c1cccc(C2NCc3c(Cl)cc(Cl)cc3-n3cccc32)c1.Cl (stereo not shown) [Compound 10, 1-[3-(7,9-dichloro-5,6-dihydro-4H-pyrrolo[1,2-a][1,4]benzodiazepin-4-yl)phenyl]-ethanone .HCl] | <4.2 | 5.3 | 5.7 | <4.2 | <4.2 | <4.2 | 5.2 |  |  |  |  |  |  | 
8 | CC(=O)c1ccc(C2NCc3c(Cl)cc(Cl)cc3-n3cccc32)cc1.Cl (stereo not shown) [Compound 12, 1-[4-(7,9-dichloro-5,6-dihydro-4H-pyrrolo[1,2-a][1,4]benzodiazepin-4-yl)phenyl]-ethanone .HCl] | <4.2 | 4.9 | 5.7 | <4.2 | <4.2 | <4.2 | 5.1 |  |  |  |  |  |  | 
9 | CS(=O)(=O)c1cccc(C2=NCc3c(Cl)cccc3-n3cccc32)c1 [Compound 27] | <4.2 | 5.2 | 5.1 | <4.2 | <4.2 | 4.2 | 5.1 |  |  |  |  |  |  | 
10 | CS(=O)(=O)c1ccc(C2=NCc3c(Cl)cc(Cl)cc3-n3cccc32)cc1 [Compound 30, 7,9-dichloro-4-[4-(methylsulfonyl)phenyl]-6H-pyrrolo[1,2-a][1,4]benzodiazepine] |  |  |  |  |  |  |  | 50.1 µM | 3.98 µM | 2 µM | > 63.1 µM | 63.1 µM | 15.8 µM | 6.31 µM
11 | OCCc1ccc(C2NCc3c(Cl)cc(Cl)cc3-n3cccc32)cc1 (stereo not shown) [Compound 34, 4-(7,9-dichloro-5,6-dihydro-4H-pyrrolo[1,2-a][1,4]benzodiazepin-4-yl)-benzeneethanol .HCl] |  |  |  |  |  |  |  | > 63.1 µM | 2 µM | 12.6 µM | > 63.1 µM | > 63.1 µM | 31.6 µM | 20 µM
12 | Cl.OCCc1ccc(C2NCc3c(Cl)cccc3-n3cccc32)cc1 (stereo not shown) [Compound 35, 4-(7-chloro-5,6-dihydro-4H-pyrrolo[1,2-a][1,4]benzodiazepin-4-yl)-benzeneethanol .HCl] | <4.2 | 4.4 | 5.1 | <4.2 | <4.2 | 4.3 | 4.9 |  |  |  |  |  |  | 
13 | Cl.OCCc1ccc(C2NCc3cc(Cl)cc(Cl)c3-n3cccc32)cc1 (stereo not shown) [Compound 36, 4-(8,10-dichloro-5,6-dihydro-4H-pyrrolo[1,2-a][1,4]benzodiazepin-4-yl)-benzeneethanol .HCl] | <4.2 | 4.3 | 4.5 | <4.2 | <4.2 | 4.6 | 4.7 |  |  |  |  |  |  | 
14 | Cl.OCCc1ccc(C2NCc3c(ccc(Cl)c3Cl)-n3cccc32)cc1 (stereo not shown) [Compound 37, 4-(7,8-dichloro-5,6-dihydro-4H-pyrrolo[1,2-a][1,4]benzodiazepin-4-yl)-benzeneethanol .HCl] | 4.8 | <4.2 | 4.5 | <4.2 | 4.4 | 5.0 | 4.4 |  |  |  |  |  |  | 
15 | Cl.OCCc1ccc(C2NCc3c(Cl)ccc(Cl)c3-n3cccc32)cc1 (stereo not shown) [Compound 38, 4-(7,10-dichloro-5,6-dihydro-4H-pyrrolo[1,2-a][1,4]benzodiazepin-4-yl)-benzeneethanol .HCl] | <4.2 | 5.7 | 5.1 | <4.2 | <4.2 | 4.7 | 4.7 |  |  |  |  |  |  | 
